Measurements: patent US20140243273A1, “METHODS FOR TREATING INFLAMMATORY DISEASES AND PHARMACEUTICAL COMBINATIONS USEFUL THEREFOR” (Vertex Pharmaceuticals Incorporated, priority 2011, published 2014)

Legend:
[1] = test system: mouse colitis model; assay: Mouse model for Crohn's disease and ulcerative colitis (CD4+CD25- T cell transfer into SCID mice); assay type: in vivo; settings: compound no. 9 (methane sulfonic acid), 50, 100, 150 mpk b.i.d., oral gavage, days 19-33, SCID mice
Experimental: Female SCID mice received grafts of 2.5×10e5 CD4+CD25-T cells from naïve BALB/c wild type donors (all Charles River Laboratories) to induce colitis. On day 14, after cell transfer, the recipient SCID mice were tested for graft acceptance and mice without T cells removed from the study. On days 19-33, the recipient SCID mice were administered compound no. 9 (methane sulfonic acid) mixed with vehicle (1% HPMC-c5, 50 mM Na citrate, pH 3.0) in doses of 50, 100, and 150 mpk b.i.d. Control mice were administered either saline, vehicle (1% HPMC-c5, 50 mM Na citrate, pH 3.0), or 1 mpk dexamethasone, b.i.d. Doses were administered via oral gavage. On day 35, the mice were sacrificed.

[2] = molecular target: T1, JAK3 (Homo sapiens, UniProt P52333); assay: JAK3 Inhibition Assay; assay type: biochemical; settings: 1 nM JAK3, 1 μM poly(Glu)4Tyr, 5 μM ATP, 25° C.; kind of constant not given
T1 sequence (P52333 1-1124): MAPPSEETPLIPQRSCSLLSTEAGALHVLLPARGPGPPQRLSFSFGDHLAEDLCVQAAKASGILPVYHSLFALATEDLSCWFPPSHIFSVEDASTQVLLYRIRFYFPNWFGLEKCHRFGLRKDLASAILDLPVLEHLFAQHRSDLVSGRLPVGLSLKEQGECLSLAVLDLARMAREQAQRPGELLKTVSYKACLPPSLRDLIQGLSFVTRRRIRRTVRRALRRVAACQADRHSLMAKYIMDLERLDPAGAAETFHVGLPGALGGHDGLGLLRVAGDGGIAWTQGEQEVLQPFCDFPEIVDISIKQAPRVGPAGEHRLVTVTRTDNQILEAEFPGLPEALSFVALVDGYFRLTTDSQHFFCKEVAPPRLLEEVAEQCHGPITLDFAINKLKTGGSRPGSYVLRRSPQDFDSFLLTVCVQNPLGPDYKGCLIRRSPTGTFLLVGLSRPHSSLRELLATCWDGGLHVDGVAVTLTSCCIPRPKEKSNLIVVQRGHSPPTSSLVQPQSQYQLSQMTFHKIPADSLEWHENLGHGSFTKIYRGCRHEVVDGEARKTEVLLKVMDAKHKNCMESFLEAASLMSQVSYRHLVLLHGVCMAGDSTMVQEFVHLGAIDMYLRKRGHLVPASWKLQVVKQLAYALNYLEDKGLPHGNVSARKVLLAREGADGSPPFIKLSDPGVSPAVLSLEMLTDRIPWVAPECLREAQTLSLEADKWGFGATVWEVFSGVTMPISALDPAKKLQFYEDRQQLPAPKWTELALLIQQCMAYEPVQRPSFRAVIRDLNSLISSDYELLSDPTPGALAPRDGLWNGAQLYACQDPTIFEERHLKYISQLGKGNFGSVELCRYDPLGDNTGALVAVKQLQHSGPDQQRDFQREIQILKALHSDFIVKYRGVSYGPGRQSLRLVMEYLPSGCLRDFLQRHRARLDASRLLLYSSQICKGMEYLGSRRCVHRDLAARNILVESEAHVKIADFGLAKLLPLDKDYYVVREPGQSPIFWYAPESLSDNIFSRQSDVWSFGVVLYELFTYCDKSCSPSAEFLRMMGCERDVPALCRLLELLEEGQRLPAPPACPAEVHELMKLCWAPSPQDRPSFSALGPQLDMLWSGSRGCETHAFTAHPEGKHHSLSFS
Experimental: (§1) Compounds were screened for their ability to inhibit JAK3 using the assay shown below. Reactions were carried out in a kinase buffer containing 100 mM HEPES (pH 7.4), 1 mM DTT, 10 mM MgCl2, 25 mM NaCl, and 0.01% BSA. Substrate concentrations in the assay were 5 μM ATP (200 uCi/μmole ATP) and 1 μM poly(Glu)4Tyr. Reactions were carried out at 25° C. and 1 nM JAK3.
(§2) To each well of a 96 well polycarbonate plate was added 1.5 μl of a compound of Formula I along with 50 μl of kinase buffer containing 2 μM poly(Glu)4Tyr and 10 μM ATP. This was then mixed and 50 μl of kinase buffer containing 2 nM JAK3 enzyme was added to start the reaction. After 15 minutes at room temperature (25° C.), the reaction was stopped with 50 μl of 20% trichloroacetic acid (TCA) that also contained 0.4 mM ATP. The entire contents of each well were then transferred to a 96 well glass fiber filter plate using a TomTek Cell Harvester. After washing, 60 μl of scintillation fluid was added and ^33P incorporation detected on a Perkin Elmer TopCount.

[3] = molecular target: JAK2 (Homo sapiens, UniProt O60674); assay: JAK2 Inhibition Assay; assay type: biochemical; settings: 5 nM JAK-2 enzyme, 15 μM poly(Glu)4Tyr, 12 μM ATP; kind of constant not given
Sequence of JAK2 (O60674 whole entry, species assumed): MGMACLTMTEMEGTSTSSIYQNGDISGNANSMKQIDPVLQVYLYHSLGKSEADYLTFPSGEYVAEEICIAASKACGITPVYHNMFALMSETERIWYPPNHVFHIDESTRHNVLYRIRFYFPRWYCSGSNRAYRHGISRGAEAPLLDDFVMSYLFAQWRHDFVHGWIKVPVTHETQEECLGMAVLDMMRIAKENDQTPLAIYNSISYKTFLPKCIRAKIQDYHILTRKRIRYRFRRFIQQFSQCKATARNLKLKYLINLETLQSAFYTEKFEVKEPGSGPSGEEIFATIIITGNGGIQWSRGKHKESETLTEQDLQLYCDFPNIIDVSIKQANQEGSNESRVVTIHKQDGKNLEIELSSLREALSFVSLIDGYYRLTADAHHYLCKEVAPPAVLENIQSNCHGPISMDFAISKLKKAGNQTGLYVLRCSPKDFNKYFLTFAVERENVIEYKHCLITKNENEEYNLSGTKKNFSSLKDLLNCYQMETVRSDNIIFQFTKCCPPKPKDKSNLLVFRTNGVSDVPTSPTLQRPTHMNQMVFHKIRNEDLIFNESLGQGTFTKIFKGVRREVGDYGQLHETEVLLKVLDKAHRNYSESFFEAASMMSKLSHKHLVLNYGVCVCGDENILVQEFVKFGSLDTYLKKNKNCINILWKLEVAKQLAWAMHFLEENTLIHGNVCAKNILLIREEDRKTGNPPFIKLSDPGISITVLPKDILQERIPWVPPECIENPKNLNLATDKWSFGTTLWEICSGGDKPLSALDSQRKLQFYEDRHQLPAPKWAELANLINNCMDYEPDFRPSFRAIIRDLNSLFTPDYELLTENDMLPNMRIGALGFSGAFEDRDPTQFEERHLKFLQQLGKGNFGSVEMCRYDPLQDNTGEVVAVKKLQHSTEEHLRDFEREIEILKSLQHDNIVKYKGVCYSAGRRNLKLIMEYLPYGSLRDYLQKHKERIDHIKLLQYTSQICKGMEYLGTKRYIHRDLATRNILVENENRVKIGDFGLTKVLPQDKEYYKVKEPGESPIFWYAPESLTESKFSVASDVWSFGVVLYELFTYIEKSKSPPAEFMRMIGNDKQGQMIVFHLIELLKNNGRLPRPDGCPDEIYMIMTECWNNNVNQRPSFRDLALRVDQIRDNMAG
Experimental: [The procedure below names another target; the source says it served here with some conditions changed.] as §1, §2

Structure (SMILES) | colon histology [1] | colon pathology [1] | frequency of splenic CD4+ T cells [1] | inflammatory cytokine production ([1]; colon tissue) | JAK3 (μM), inhibition data [2] [µM] | JAK2 (μM), inhibition data [3] [µM]
CC(C)(Nc1ccnc(-c2c[nH]c3ncc(Cl)cc23)n1)C(=O)NCC(F)(F)F [Compound No. 9] | Improvements | improved | significant reduction | improved | 0.001 | 0.001
CC[C@@](C)(Nc1ccnc(-c2c[nH]c3ncccc23)n1)C(=O)NCC(F)(F)F [compound 1] |  |  |  |  | 0.003 | 0.015
CC(C)(Nc1ccnc(-c2c[nH]c3ncccc23)n1)C(=O)NCC(F)(F)F [compound 2] |  |  |  |  | 0.0032 | 0.028
CC[C@](C)(Nc1nc(-c2c[nH]c3ncccc23)ncc1F)C(=O)NCC(F)(F)F [compound 3] |  |  |  |  | 0.0042 | 0.028
CC(C)(Nc1nc(-c2c[nH]c3ncccc23)ncc1F)C(=O)NCC(F)(F)F [compound 4] |  |  |  |  | 0.0056 | 0.091
CC(C)[C@](C)(Nc1ccnc(-c2c[nH]c3ncccc23)n1)C(=O)NCC(F)(F)F [compound 5] |  |  |  |  | 0.0024 | 0.0042
CC(C)(Nc1ncnc(-c2c[nH]c3ncccc23)n1)C(=O)NCC(F)(F)F [compound 6] |  |  |  |  | 0.0045 | 0.046
CCN(C)C(=O)[C@](C)(CC)Nc1ccnc(-c2c[nH]c3ncccc23)n1 [compound 7] |  |  |  |  | 0.018 | 0.056
CCNC(=O)C(C)(C)Nc1ncnc(-c2c[nH]c3ncccc23)n1 [compound 8] |  |  |  |  | 0.019 | 0.083
CC(C)[C@](C)(Nc1nc(-c2c[nH]c3ncc(Cl)cc23)ncc1F)C(=O)NCC(F)(F)F [compound 10] |  |  |  |  | 0.002 | 0.001
CC(C)[C@@](C)(Nc1nc(-c2c[nH]c3ncc(Cl)cc23)ncc1F)C(=O)NCC(F)(F)F [compound 11] |  |  |  |  | 0.006 | 0.055
CC[C@@](C)(Nc1nc(-c2c[nH]c3ncc(Cl)cc23)ncc1F)C(=O)NCC(F)(F)F [compound 12] |  |  |  |  | 0.006 | 0.037
CC(C)(Nc1ncnc(-c2c[nH]c3ncc(Cl)cc23)n1)C(=O)NCC(F)(F)F [compound 13] |  |  |  |  | 0.001 | 0.003
CC[C@](C)(Nc1ccnc(-c2c[nH]c3ncc(Cl)cc23)n1)C(=O)NCC(F)(F)F [compound 14] |  |  |  |  | 0.003 | 0.002
CC[C@](C)(Nc1nc(-c2c[nH]c3ncc(Cl)cc23)ncc1F)C(=O)NCC(F)(F)F [compound 15] |  |  |  |  | 0.002 | 0.001
CC[C@@](C)(Nc1ccnc(-c2c[nH]c3ncc(Cl)cc23)n1)C(=O)NCC(F)(F)F [compound 16] |  |  |  |  | 0.002 | 0.01
CCNC(=O)C(C)(C)Nc1ccnc(-c2c[nH]c3ncc(Cl)cc23)n1 [compound 17] |  |  |  |  | 0.001 | 0.003
CC(C)[C@](C)(Nc1ccnc(-c2c[nH]c3ncc(Cl)cc23)n1)C(=O)NCC(F)(F)F [compound 18] |  |  |  |  | 0.001 | 0.0007
CC(C)(Nc1nc(-c2c[nH]c3ncc(Cl)cc23)ncc1F)C(=O)NCC(F)(F)F [compound 19] |  |  |  |  | 0.004 | 0.001
